IC50 data for 8 compounds are collected here from US6333428A, “6-fluorobicyclo[3.1.0]hexane derivatives” (Taisho Pharmaceutical Co., Ltd., priority 1998, dated 2001).

The target of the assay is T1, metabotropic glutamate receptors mG1uR2 (Rattus norvegicus, UniProt P31421).
T1 construct: expressed in transfected cells
Briefly: Effect of Test Compounds on cAMP Accumulation (inhibition of Forskolin-stimulated cAMP accumulation in CHO cells stably expressing mGluR2). The format is cell-based. The method, then: After the medium was replaced with an L-glutamine free medium, they were cultured for 4 hours, and the supernatant liquid was aspirated. After adding 150 μl of PBS(+)-IBMX (10 mM PBS(-), 1 mM MgC12,1 mM CaCl2, 1 mM IBMX), incubation was conducted at 37° C. under the presence of 5% CO2 for 20 minutes. Once again the supernatant liquid was suctioned off, 60 μl of 10^-5 M Forskolin and PBS (+)-IBMX containing the specimens listed in Table 1 between 10^-10 and 10^-4 M were added, incubation was carried out for 15 minutes at 37° C. under the presence of 5% CO2, and a study was carried out for the inhibitory effect of the agonists on the Forskolin stimulation cAMP accumulation quantity [for control, the conditions were set to Forskolin with no addition of the compounds (Tanabe et al., Neuron, 8, 169-179 (1992))]. The reactions were halted by adding 100 μl of ice-cooled ethanol, the entire quantity of the supernatant liquid was collected in a separate plate, then was dried up at normal temperature with an evaporator, and was kept at -20° C. In the dried-up samples, the quantity of cAMP was measured using a cAMP EIA kit (from the Amasham company). The control value was subtracted from each cAMP quantity.

Where [1] appears, read: CHO cells stably expressing mGluR2, 10^-5 M Forskolin, specimens 10^-10 to 10^-4 M, 15 minutes at 37° C., cAMP EIA kit, agonist.

Read-outs that look alike come from different tables or passages of the source.

T1 sequence (P31421 19-872): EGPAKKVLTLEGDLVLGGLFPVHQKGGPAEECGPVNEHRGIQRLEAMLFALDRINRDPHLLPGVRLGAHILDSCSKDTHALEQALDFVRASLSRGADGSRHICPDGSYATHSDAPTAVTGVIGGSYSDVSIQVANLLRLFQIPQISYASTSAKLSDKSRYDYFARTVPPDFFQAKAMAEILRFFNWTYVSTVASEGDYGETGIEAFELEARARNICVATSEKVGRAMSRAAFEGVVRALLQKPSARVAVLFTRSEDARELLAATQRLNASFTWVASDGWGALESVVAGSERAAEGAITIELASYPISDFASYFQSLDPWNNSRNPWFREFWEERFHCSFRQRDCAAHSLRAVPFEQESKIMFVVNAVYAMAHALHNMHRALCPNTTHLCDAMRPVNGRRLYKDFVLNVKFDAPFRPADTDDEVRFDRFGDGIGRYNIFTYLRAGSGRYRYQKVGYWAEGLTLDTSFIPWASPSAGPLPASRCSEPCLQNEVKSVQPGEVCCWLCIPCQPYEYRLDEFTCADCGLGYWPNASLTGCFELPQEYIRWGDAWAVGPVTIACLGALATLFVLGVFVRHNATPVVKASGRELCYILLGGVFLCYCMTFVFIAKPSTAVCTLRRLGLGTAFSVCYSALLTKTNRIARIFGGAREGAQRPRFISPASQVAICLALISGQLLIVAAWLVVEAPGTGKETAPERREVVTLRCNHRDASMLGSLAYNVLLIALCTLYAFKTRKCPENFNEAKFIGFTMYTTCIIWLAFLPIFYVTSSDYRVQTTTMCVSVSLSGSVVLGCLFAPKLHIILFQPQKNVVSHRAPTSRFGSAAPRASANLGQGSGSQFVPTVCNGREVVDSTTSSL

`N[C@@]1(C(=O)O)CC[C@@H]2[C@H]1[C@@]2(F)C(=O)O` (racemic) [Comp. 1, (1RS, 2SR, 5RS, 6RS)-2-amino-6-fluorobicyclo[3.1.0]hexane-2,6-dicarboxylic acid] registered a 50% inhibitory concentration (IC50) under setting [1] of 34.2 nM.

For the compound `N[C@@]1(C(=O)O)CC(=O)[C@@H]2[C@H]1[C@@]2(F)C(=O)O` (racemic) [Comp. 3, (1RS, 2SR, 5SR, 6SR)-2-amino-6-fluoro-4-oxobicyclo[3.1.0]hexane-2,6-dicarboxylic acid], the IC50 under setting [1] amounted to 1.26 nM.

For `N[C@@]1(C(=O)O)C[C@H](O)[C@@H]2[C@H]1[C@@]2(F)C(=O)O` (racemic) [Comp. 5, (1RS, 2SR, 4SR, 5SR, 6SR)-2-amino-6-fluoro-4-hydroxybicyclo [3.1.0]hexane-2,6-dicarboxylic acid], the IC50 under setting [1] is 19.6 nM.

In the case of `N[C@@]1(C(=O)O)CC[C@@H]2[C@H]1[C@@]2(F)C(=O)O` (single isomer, unassigned) [Comp. 2, (-)-(1R*, 2S*, 5R*, 6R*)-2-amino-6-fluorobicyclo[3.1.0]hexane-2,6-dicarboxylic acid], under setting [1], the IC50 is 16.6 nM.

As for `N[C@@]1(C(=O)O)CC(=O)[C@@H]2[C@H]1[C@@]2(F)C(=O)O` (single isomer, unassigned) [Comp. 4, (+)-(1R*, 2S*, 5S*, 6S*)-2amino-6-fluoro-4-oxobicyclo [3.1.0]hexane-2,6-dicarboxylic acid], under setting [1], the IC50 is 0.66 nM.

Regarding `N[C@@]1(C(=O)O)CC[C@@H](C(=O)O)C1` [(1s,3R)-ACPD, (1S, 3R)-1-aminocyclopentane-1,3-dicarboxylic acid, reference compound], the IC50 was determined as 1500 nM.

For `N[C@H](C(=O)O)C1[C@@H](C(=O)O)[C@@H]1C(=O)O` (stereo partly drawn) [DCG IV, (2S, 1'R, 2'R, 3'R)-2-(2', 3'-dicarboxycycloproyl)glycine, reference compound], the IC50 under setting [1] was found to be 98.3 nM.

For `N[C@H](C(=O)O)[C@H]1C[C@@H]1C(=O)O` [L-CCG-I, (2S, 1'S, 2'S)-2-(carboxycyclopropyl)glycine, reference compound], under setting [1], the 50% inhibitory concentration (IC50) was 121 nM.

Broadly, the IC50 is the concentration at which inhibition is half-maximal. A higher IC50 goes with lower potency.
